Source: BindingDB's records for patent US20240158413 (Soter Biopharma, 2024)
pIC50: −log10 of the molar value.

Biological target: T1, Gonadotropin-releasing hormone receptor (Homo sapiens, UniProt P30968)
T1 sequence (P30968 whole entry): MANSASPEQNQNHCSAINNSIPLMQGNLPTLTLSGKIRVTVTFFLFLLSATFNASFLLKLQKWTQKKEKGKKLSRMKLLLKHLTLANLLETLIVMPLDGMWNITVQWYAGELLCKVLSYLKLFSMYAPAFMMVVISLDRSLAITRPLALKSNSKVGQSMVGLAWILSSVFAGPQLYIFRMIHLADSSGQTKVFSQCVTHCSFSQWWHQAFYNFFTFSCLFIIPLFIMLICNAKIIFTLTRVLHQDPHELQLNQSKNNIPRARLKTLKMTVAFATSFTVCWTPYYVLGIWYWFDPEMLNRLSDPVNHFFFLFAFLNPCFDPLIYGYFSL
Test: Inhibitory Activity Assay
Experimental: GnRH/HEK293 (human embryonic kidney cell 293) cultured cells in the logarithmic growth phase were washed with DPBS (Dulbecco's phosphate buffered saline) buffer, and an appropriate amount of 0.05% EDTA (ethylenediaminetetraacetic acid)-trypsin was added. The cells were placed in a carbon dioxide incubator at 37° C. for digestion for 1-2 minutes, and then removed from the incubator. A medium was added to the cells to terminate the digestion. Cells were dispersed by repeated pipetting and harvested by centrifugation. The cells were seeded into a 384-well Poly-Lysine-Coated. Cell Plate at a density of 20,000 cells per well. […] The fluorescence signal was read. Then 10 μL of the reference compound as an agonist was added, and the fluorescent signal was read. […] The fluorescent signal was read. Then 10 μL of agonist with a concentration of 6×EC50 was added to the cell plate and the fluorescent signal was read.IC50 of the compound to inhibit the calcium flow of gonadotropin-releasing hormone receptor, i.e., the drug concentration when the Ca2+ flow was inhibited by half in the cells stably expressing the GnRH receptor, was calculated. The IC50 of the drug was calculated by GraphPad Prism 5.0 software.

| pIC50 | SMILES |
| --- | --- |
| 8.49 | Cc1c(F)ccc2c1COc1cc(C3C(=O)Nc4csc(C(=O)O)c4C3=O)c(F)cc1OCCCO2 (configuration not stated) [US20240158413, Compound 1] |
| 8.04 | O=C(O)c1scc2c1C(=O)C(c1cc3c(cc1F)OCC1(CC1)COc1ccc(F)c(F)c1CO3)C(=O)N2 (configuration not stated) [US20240158413, Compound 2] |
